Experimental data reported in patent US20230174484A1, “ANTAGONISTS OF GPR39 PROTEIN” (Oregon Health & Science University, priority 2020, published 2023).
Where a name gives a salt, the structure may show the parent alone.

Biological target: T1, human GPR39 receptor (Homo sapiens, UniProt O43194)
T1 construct: PC3 Cells, Expressing the Endogenous Human GPR39 Receptor; endogenous in cells; host or cells: PC3 (human prostate adenocarcinoma) cells
T1 sequence (O43194 1-453): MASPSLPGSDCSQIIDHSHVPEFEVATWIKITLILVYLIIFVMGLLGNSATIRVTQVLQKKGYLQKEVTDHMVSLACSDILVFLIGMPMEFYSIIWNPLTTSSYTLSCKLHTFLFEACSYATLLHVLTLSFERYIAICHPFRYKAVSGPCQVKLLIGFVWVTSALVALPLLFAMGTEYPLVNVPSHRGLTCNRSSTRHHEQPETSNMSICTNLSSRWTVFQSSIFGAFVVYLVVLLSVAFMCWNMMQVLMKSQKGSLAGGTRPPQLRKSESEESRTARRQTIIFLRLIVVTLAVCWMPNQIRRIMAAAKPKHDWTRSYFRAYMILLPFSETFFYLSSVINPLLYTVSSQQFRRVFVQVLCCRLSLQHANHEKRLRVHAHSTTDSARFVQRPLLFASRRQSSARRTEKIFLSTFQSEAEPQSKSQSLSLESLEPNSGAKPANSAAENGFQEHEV
Test: Measurement of intracellular calcium response in PC3 cells (FLIPR), antagonism of the C3 agonist response
Format: cell-based
Conditions: functional pKi (modified Cheng-Prusoff), inhibition of the C3 (TC-G 1008) response at EC90, 30 μM ZnCl2, read-out: fpKi activity
How it was run: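 PC3 cells with endogenous human GPR39 were loaded with Calcium-6 and read by FLIPR, with compounds tested in buffer with 30 μM final ZnCl2 and 0.32% DMSO. Peak Ca2+ signal was scored as % inhibition of the EC90 C3 response, fitted by four-parameter logistic. Functional pKi was derived via the modified Cheng-Prusoff equation.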

SMILES | Ki [nM]
CN1CCN(C(=O)c2ccc(NC(=O)C3CC3)cc2N2CCC(F)(F)C2)C(c2ccccc2)C1 (single isomer, unassigned) [Example 202a, N-[3-(3,3-difluoropyrrolidin-1-yl)-4-(2R or 2S)-4-methyl-2-phenylpiperazine-1-carbonyl)phenyl]cyclopropanecarboxamide] | 1260 to 6310
CCCN1CCN(C(=O)c2ccc(NC(=O)C3CC3)cc2N2CCCOCC2)CC1 [Example 3, N-[3-(1,4-oxazepan-4-yl)-4-(4-propylpiperazine-1-carbonyl)phenyl]cyclopropanecarboxamide] | 316 to 1000
CCCN1CCN(C(=O)c2ccc(NC(=O)C3CC3)cc2N2CC3(CCOCC3)C2)CC1 [Example 4, N-(4-(4-propylpiperazine-1-carbonyl)-3-(7-oxa-2-azaspiro[3.5]nonan-2-yl)phenyl)cyclopropane carboxamide] | 316 to 1000
CCCN1CCN(C(=O)c2ccc(NC(=O)C3CC3)cc2N2CCC(c3ccccc3)C2)CC1 (centres unmarked) [Example 5, N-(3-(3-phenylpyrrolidin-1-yl)-4-(4-propylpiperazine-1-carbonyl)phenyl) cyclopropanecarboxamide] | 316 to 1000
CCCN1CCN(C(=O)c2ccc(NC(=O)C3CC3)cc2N2CCCC3(COC3)C2)CC1 [Example 6, N-(4-(4-propylpiperazine-1-carbonyl)-3-(2-oxa-6-azaspiro[3.5]nonan-6-yl)phenyl)cyclopropane carboxamide] | 1260 to 6310
CCCN1CCN(C(=O)c2ccc(NC(=O)C3CC3)cc2N2CCC(F)(F)CC2)CC1 [Example 7, N-(3-(4,4-difluoropiperidin-1-yl)-4-(4-propylpiperazine-1-carbonyl)phenyl) cyclopropanecarboxamide] | 1260 to 6310
CCCN1CCN(C(=O)c2ccc(NC(=O)C3CC3)cc2-n2ccc(C)c2)CC1 [Example 9, N-[3-(3-methylpyrrol-1-yl)-4-(4-propylpiperazine-1-carbonyl)phenyl] Cyclopropanecarboxamide] | 1260 to 6310
CCCN1CCN(C(=O)c2ccc(NC(=O)C3CC3)cc2-c2ccccc2)CC1 [Example 10, N-(6-(4-propylpiperazine-1-carbonyl)-[1,1′-biphenyl]-3-yl)cyclopropanecarboxamide] | 1260 to 6310
CCCN1CCN(C(=O)c2ccc(NC(=O)C3CC3)cc2-c2ccccn2)CC1 [Example 11, N-(4-(4-propylpiperazine-1-carbonyl)-3-(pyridin-2-yl)phenyl)cyclopropanecarboxamide] | 316 to 1000
CCCN1CCN(C(=O)c2ccc(NC(=O)C3CC3)cc2N2CC3CC3C2)CC1 (centres unmarked) [Example 12, N-(3-(3-azabicyclo[3.1.0]hexan-3-yl)-4-(4-propylpiperazine-1-carbonyl)phenyl)cyclopropanecarboxamide] | 316 to 1000
CCCN1CCN(C(=O)c2ccc(NC(=O)C3CC3)cc2N2CCc3ccccc3C2)CC1 [Example 18, N-(3-(3,4-dihydroisoquinolin-2(1H)-yl)-4-(4-propylpiperazine-1-carbonyl)phenyl)cyclopropane carboxamide] | 316 to 1000
CCCN1CCN(C(=O)c2ccc(NC(=O)C3CC3)cc2N2CCCCC2)CC1 [Example 19, N-(3-(piperidin-1-yl)-4-(4-propylpiperazine-1-carbonyl)phenyl)cyclopropanecarboxamide] | 316 to 1000
CCCN1CCN(C(=O)c2ccc(NC(=O)C3CC3)cc2NC2CCCC2)CC1 [Example 20, N-[3-(cyclopentylamino)-4-(4-propylpiperazine-1-carbonyl)phenyl]cyclopropanecarboxamide] | 316 to 1000
O=C(Nc1ccc(C(=O)N2CCc3ccccc3C2)c(N2CCCCCC2)c1)C1CC1 [Example 21, N-(3-(azepan-1-yl)-4-(1,2,3,4-tetrahydroisoquinoline-2-carbonyl)phenyl) cyclopropanecarboxamide] | 316 to 1000
O=C(Nc1ccc(C(=O)N2CCN(Cc3cc[nH]n3)CC2)c(N2CCCCCC2)c1)C1CC1 [Example 23] | 316 to 1000
COc1cccc(CN2CCN(C(=O)c3ccc(NC(=O)C4CC4)cc3N3CCCCCC3)CC2)c1 [Example 25, N-(3-(azepan-1-yl)-4-(4-(3-methoxybenzyl)piperazine-1-carbonyl)phenyl) Cyclopropanecarboxamide] | 316 to 1000
COc1ccccc1CN1CCN(C(=O)c2ccc(NC(=O)C3CC3)cc2N2CCCCCC2)CC1 [Example 27, N-(3-(azepan-1-yl)-4-(4-(2-methoxybenzyl)piperazine-1-carbonyl)phenyl) cyclopropanecarboxamide] | 316 to 1000

Results, then the compound that gave them:

Ki [nM] | SMILES
316 to 1000 | CN1CCN(C(=O)c2ccc(NC(=O)C3CC3)cc2N2CCC(C(F)(F)F)C2)C(c2ccccc2)C1 (single isomer, unassigned) [Example 199d, (2S, 3R) or (2R, 3S) or (2R, 3R) or (2S, 3S) N-[4-(4-methyl-2-phenylpiperazine-1-carbonyl)-3-[3-(trifluoromethyl)pyrrolidin-1-yl]phenyl]cyclopropanecarboxamide]
≤ 50.1 | CN1CCN(C(=O)c2ccc(NC(=O)C3CC3)cc2N2CCC(C(F)(F)F)C2)C(c2ccccc2)C1 (single isomer, unassigned) [Example 199e, (2S, 3R) or (2R, 3S) or (2R, 3R) or (2S, 3S) N-[4-(4-methyl-2-phenylpiperazine-1-carbonyl)-3-[3-(trifluoromethyl)pyrrolidin-1-yl]phenyl]cyclopropanecarboxamide hydrochloride]
63.1 to 251 | CN1CCN(C(=O)c2ccc(NC(=O)C3CC3)cc2N2CCCCC2)C(c2ccccc2)C1 (single isomer, unassigned) [Example 201a, N-[4-(4-methyl-(2R or 2S)-phenylpiperazine-1-carbonyl)-3-piperidin-1-ylphenyl]cyclopropanecarboxamide]
≤ 50.1 | CN1CCN(C(=O)c2ccc(NC(=O)C3CC3)cc2N2CCC(F)(F)C2)C(c2ccccc2)C1 (single isomer, unassigned) [Example 202b, N-[3-(3,3-difluoropyrrolidin-1-yl)-4-(2R or 2S)-4-methyl-2-phenylpiperazine-1-carbonyl)phenyl]cyclopropanecarboxamide]
≤ 50.1 | O=C(Nc1ccc(C(=O)N2CCC3(CC2)COC3)c(N2CCC(C(F)(F)F)C2)c1)C1CC1 (single isomer, unassigned) [Example 213a, N-[4-(2-oxa-7-azaspiro[3.5]nonane-7-carbonyl)-3-[3R or 3S-(trifluoromethyl)pyrrolidin-1yl]phenyl]cyclopropanecarboxamide]
63.1 to 251 | O=C(Nc1ccc(C(=O)N2CCC3(CC2)COC3)c(N2CCC(C(F)(F)F)C2)c1)C1CC1 (single isomer, unassigned) [Example 213b]
≤ 50.1 | CCCN1CCN(C(=O)c2ccc(NC(=O)C3CC3)cc2N2CCC3(CCC3)C2)CC1 [Example 1, N-(4-(4-propylpiperazine-1-carbonyl)-3-(6-azaspiro[3.4]octan-6-yl)phenyl)cyclopropanecarboxamide]
≤ 50.1 | CCCN1CCN(C(=O)c2ccc(NC(=O)C3CC3)cc2N2CC[C@@H](C(C)C)C2)CC1 [Example 2, (S)-N-(3-(3-isopropylpyrrolidin-1-yl)-4-(4-propylpiperazine-1-carbonyl)phenyl)cyclopropanecarboxamide]
63.1 to 251 | CCCN1CCN(C(=O)c2ccc(NC(=O)C3CC3)cc2-n2ccc(C)n2)CC1 [Example 8, N-(3-(3-methyl-1H-pyrazol-1-yl)-4-(4-propylpiperazine-1-carbonyl)phenyl)cyclopropanecarboxamide]
63.1 to 251 | CCCN1CCN(C(=O)c2ccc(NC(=O)C3CC3)cc2N2CCC(C)CC2)CC1 [Example 15, N-(3-(4-methylpiperidin-1-yl)-4-(4-propylpiperazine-1-carbonyl)phenyl) cyclopropanecarboxamide]
63.1 to 251 | CCCN1CCN(C(=O)c2ccc(NC(=O)C3CC3)cc2N2CCCC2)CC1 [Example 16, N-[4-(4-propylpiperazine-1-carbonyl)-3-(pyrrolidin-1-yl)phenyl] Cyclopropanecarboxamide]
63.1 to 251 | CCCN1CCN(C(=O)c2ccc(NC(=O)C3CC3)cc2N2CCC(C)(C)CC2)CC1 [Example 17, N-(3-(4,4-dimethylpiperidin-1-yl)-4-(4-propylpiperazine-1-carbonyl)phenyl)cyclopropanecarboxamide]
63.1 to 251 | O=C(Nc1ccc(C(=O)N2CCN(Cc3ccon3)CC2)c(N2CCCCCC2)c1)C1CC1 [Example 22, N-(3-(azepan-1-yl)-4-(4-(isoxazol-3-ylmethyl)piperazine-1-carbonyl)phenyl) cyclopropanecarboxamide]
63.1 to 251 | O=C(Nc1ccc(C(=O)N2CCN(Cc3ncco3)CC2)c(N2CCCCCC2)c1)C1CC1 [Example 24, N-(3-(azepan-1-yl)-4-(4-(oxazol-2-ylmethyl)piperazine-1-carbonyl)phenyl) cyclopropanecarboxamide]
63.1 to 251 | O=C(Nc1ccc(C(=O)N2CCN(Cc3cccc(F)c3)CC2)c(N2CCCCCC2)c1)C1CC1 [Example 26, N-(3-(azepan-1-yl)-4-(4-(3-fluorobenzyl)piperazine-1-carbonyl)phenyl) Cyclopropanecarboxamide]
